From patent US9833497B2, “Human originated EGF domain proteins and use of the same” (CHENGDU SOURCEBIO LIMITED-LIABILITY COMPANY, priority 2013, dated 2017)

Columns and labels:
Assay type in all cases: cell-based
E. coli DH5α = experiment: Antibacterial activity: MIC and growth curve against E. coli DH5α in 96-well plate; settings: minimal inhibitory concentration against E. coli DH5α; 96-well plate, 5×10^5 CFU/mL, 37° C., judged after 8 h
Summary of the method: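 Log-phase DH5α (OD600 about 0.5, 37° C, 185 rpm in LB) was pelleted, resuspended in fresh LB and seeded at 5×10^5 CFU/mL with recombinant protein at 50, 25 and 12.5 μg/mL (two-fold series), in triplicate. Plates were shaken at 175 rpm, 37° C, and OD600 was read every 30 min. MIC was the lowest concentration with no growth.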

Citrobacter diversus = experiment: MIC against Gram-negative bacteria: Citrobacter diversus
Summary of the method: (§1)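 Read-out is absence of bacterial growth, with MIC set at the lowest recombinant protein concentration achieving it. Bacteria, pre-grown in LB to McFarland 0.5 and resuspended, were exposed at 5×10^5 CFU/mL to two-fold diluted human EGF domain proteins in triplicate at 37° C, 175 rpm.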

Aeromonas hydrophila = experiment: MIC against Gram-negative bacteria: Aeromonas hydrophila
Summary of the method: as §1

Moraxella catarrhalis = experiment: MIC against Gram-negative bacteria: Moraxella catarrhalis
Summary of the method: as §1

Pseudomonas aeruginosa = experiment: MIC against Gram-negative bacteria: Pseudomonas aeruginosa
Summary of the method: as §1

Enterobacter cloacae = experiment: MIC against Gram-negative bacteria: Enterobacter cloacae
Summary of the method: as §1

Proteus mirabilis = experiment: MIC against Gram-negative bacteria: Proteus mirabilis
Summary of the method: as §1

Proteus vulgaris = experiment: MIC against Gram-negative bacteria: Proteus vulgaris
Summary of the method: as §1

Serratia marcescens = experiment: MIC against Gram-negative bacteria: Serratia marcescens
Summary of the method: as §1

Klebsiella pneumonia = experiment: MIC against Gram-negative bacteria: Klebsiella pneumonia
Summary of the method: as §1

E. coli BL21 = experiment: MIC against Gram-negative bacteria: E. coli BL21
Summary of the method: as §1

[1] = C. diversus, 10 h cultivation at 37° C., 5×10^5 CFU/mL
[2] = A. hydrophila, 10 h cultivation at 37° C., 5×10^5 CFU/mL
[3] = M. catarrhalis, 10 h cultivation at 37° C., 5×10^5 CFU/mL
[4] = P. aeruginosa, 10 h cultivation at 37° C., 5×10^5 CFU/mL
[5] = E. cloacae, 10 h cultivation at 37° C., 5×10^5 CFU/mL
[6] = P. mirabilis, 10 h cultivation at 37° C., 5×10^5 CFU/mL
[7] = P. vulgaris, 10 h cultivation at 37° C., 5×10^5 CFU/mL
[8] = S. marcescens, 10 h cultivation at 37° C., 5×10^5 CFU/mL
[9] = K. pneumonia, 10 h cultivation at 37° C., 5×10^5 CFU/mL
[10] = E. coli BL21, 10 h cultivation at 37° C., 5×10^5 CFU/mL
[11] = 96-well plate, 5×10^5 CFU/mL, 37° C., 10 h
[12] = Citrobacter diversus, 96-well plate, 5×10^5 CFU/mL, 37° C., 10 h
[13] = Aeromonas hydrophila, 96-well plate, 5×10^5 CFU/mL, 37° C., 10 h
[14] = Moraxella catarrhalis, 96-well plate, 5×10^5 CFU/mL, 37° C., 10 h
[15] = Pseudomonas aeruginosa, 96-well plate, 5×10^5 CFU/mL, 37° C., 10 h
[16] = Enterobacter cloacae, 96-well plate, 5×10^5 CFU/mL, 37° C., 10 h
[17] = Proteus mirabilis, 96-well plate, 5×10^5 CFU/mL, 37° C., 10 h
[18] = Proteus vulgaris, 96-well plate, 5×10^5 CFU/mL, 37° C., 10 h
[19] = Serratia marcescens, 96-well plate, 5×10^5 CFU/mL, 37° C., 10 h
[20] = Klebsiella pneumonia, 96-well plate, 5×10^5 CFU/mL, 37° C., 10 h
[21] = E. coli BL21, 96-well plate, 5×10^5 CFU/mL, 37° C., 10 h
[22] = 10 h cultivation at 37° C., 5×10^5 CFU/mL, two-fold serial dilution

Substance	MIC (E. coli DH5α)	MIC (μg/mL) C. diversus (Citrobacter diversus; [1])	MIC (μg/mL) A. hydrophila (Aeromonas hydrophila; [2])	MIC (μg/mL) M. catarrhalis (Moraxella catarrhalis; [3])	MIC (μg/mL) P. aeruginosa (Pseudomonas aeruginosa; [4])	MIC (μg/mL) E. cloacae (Enterobacter cloacae; [5])	MIC (μg/mL) P. mirabilis (Proteus mirabilis; [6])	MIC (μg/mL) P. vulgaris (Proteus vulgaris; [7])	MIC (μg/mL) S. marcescens (Serratia marcescens; [8])	MIC (μg/mL) K. pneumonia (Klebsiella pneumonia; [9])	MIC (μg/mL) E. coli BL21 (E. coli BL21; [10])	also measured
PRT236 (TKTSCAKCPPNASCVNNTHCTCNHGYTSGSGQKLFTFPLETCN; listed as Homo sapiens)	12.5 µg/mL	12.5 µg/mL	25 µg/mL	25 µg/mL	100 µg/mL	12.5 µg/mL	12.5 µg/mL	25 µg/mL	12.5 µg/mL	12.5 µg/mL	12.5 µg/mL	–
PRT822 (VRAGCRHSGGCLNGGLCDPHTGRCLCPAGWTGDKCQ; listed as Homo sapiens)	12.5 µg/mL	12.5 µg/mL	12.5 µg/mL	12.5 µg/mL	50 µg/mL	50 µg/mL	25 µg/mL	12.5 µg/mL	12.5 µg/mL	12.5 µg/mL	25 µg/mL	–
PRT558 (CTCDPRGALDQLCGAGGLCRCRPGYTGTACQECSPGFHGFPSCVP; listed as Homo sapiens)	12.5 µg/mL	–	–	–	–	–	–	–	–	–	–	MIC against C. diversus (Citrobacter diversus; [11]): 12.5 µg/mL; MIC against A. hydrophila (Aeromonas hydrophila; [11]): 25 µg/mL; MIC against M. catarrhalis (Moraxella catarrhalis; [11]): 25 µg/mL; MIC against P. aeruginosa (Pseudomonas aeruginosa; [11]): 12.5 µg/mL; MIC against E. cloacae (Enterobacter cloacae; [11]): 50 µg/mL; MIC against P. mirabilis (Proteus mirabilis; [11]): 50 µg/mL; MIC against P. vulgaris (Proteus vulgaris; [11]): 25 µg/mL; MIC against S. marcescens (Serratia marcescens; [11]): 12.5 µg/mL; MIC against K. pneumonia (Klebsiella pneumonia; [11]): 25 µg/mL; MIC against E. coli BL21 (E. coli BL21; [11]): 25 µg/mL
PRT147 (DINECEINNGGCSVAPPVECVNTPGSSHCQACPPGYQGDGRVCT; listed as Homo sapiens)	12.5 µg/mL	12.5 µg/mL	12.5 µg/mL	12.5 µg/mL	12.5 µg/mL	12.5 µg/mL	12.5 µg/mL	25 µg/mL	12.5 µg/mL	12.5 µg/mL	12.5 µg/mL	–
PRT94 (DVNECNAHPCFPRVRCINTSPGFRCEACPPGYSGPTHQGVGLAFAKANKQVCT; listed as Homo sapiens)	12.5 µg/mL	–	–	–	–	–	–	–	–	–	–	MIC (μg/mL) C. diversus (Citrobacter diversus; [12]): 50 µg/mL; MIC (μg/mL) A. hydrophila (Aeromonas hydrophila; [13]): 12.5 µg/mL; MIC (μg/mL) M. catarrhalis (Moraxella catarrhalis; [14]): 25 µg/mL; MIC (μg/mL) P. aeruginosa (Pseudomonas aeruginosa; [15]): 12.5 µg/mL; MIC (μg/mL) E. cloacae (Enterobacter cloacae; [16]): 50 µg/mL; MIC (μg/mL) P. mirabilis (Proteus mirabilis; [17]): 12.5 µg/mL; MIC (μg/mL) P. vulgaris (Proteus vulgaris; [18]): 25 µg/mL; MIC (μg/mL) S. marcescens (Serratia marcescens; [19]): 50 µg/mL; MIC (μg/mL) K. pneumonia (Klebsiella pneumonia; [20]): 12.5 µg/mL; MIC (μg/mL) E. coli BL21 (E. coli BL21; [21]): 12.5 µg/mL
PRT811 (FGKNCSFSCSCQNGGTCDSVTGACRCPPGVSGTNCE; listed as Homo sapiens)	12.5 µg/mL	12.5 µg/mL	12.5 µg/mL	12.5 µg/mL	12.5 µg/mL	12.5 µg/mL	25 µg/mL	25 µg/mL	25 µg/mL	12.5 µg/mL	25 µg/mL	–
PRT78 (KKNVCDSNTCHNGGTCVNQWDAFSCECPLGFGGKSCA; listed as Homo sapiens)	50 µg/mL	–	–	–	–	–	–	–	–	–	–	MIC (μg/mL) C. diversus (Citrobacter diversus; [12]): 50 µg/mL; MIC (μg/mL) A. hydrophila (Aeromonas hydrophila; [13]): 25 µg/mL; MIC (μg/mL) M. catarrhalis (Moraxella catarrhalis; [14]): 50 µg/mL; MIC (μg/mL) P. aeruginosa (Pseudomonas aeruginosa; [15]): 50 µg/mL; MIC (μg/mL) E. cloacae (Enterobacter cloacae; [16]): 50 µg/mL; MIC (μg/mL) P. mirabilis (Proteus mirabilis; [17]): 50 µg/mL; MIC (μg/mL) P. vulgaris (Proteus vulgaris; [18]): 50 µg/mL; MIC (μg/mL) S. marcescens (Serratia marcescens; [19]): 12.5 µg/mL; MIC (μg/mL) K. pneumonia (Klebsiella pneumonia; [20]): 25 µg/mL; MIC (μg/mL) E. coli BL21 (E. coli BL21; [21]): 25 µg/mL
PRT1134 (NVDDCLMRPCANGATCLDGINRFSCLCPEGFAGRFCT; listed as Homo sapiens)	12.5 µg/mL	–	–	–	–	–	–	–	–	–	–	MIC C. diversus (Citrobacter diversus; [22]): 12.5 µg/mL; MIC A. hydrophila (Aeromonas hydrophila; [22]): 12.5 µg/mL; MIC M. catarrhalis (Moraxella catarrhalis; [22]): 12.5 µg/mL; MIC P. aeruginosa (Pseudomonas aeruginosa; [22]): 12.5 µg/mL; MIC E. cloacae (Enterobacter cloacae; [22]): 12.5 µg/mL; MIC P. mirabilis (Proteus mirabilis; [22]): 12.5 µg/mL; MIC P. vulgaris (Proteus vulgaris; [22]): 50 µg/mL; MIC S. marcescens (Serratia marcescens; [22]): 12.5 µg/mL; MIC K. pneumonia (Klebsiella pneumonia; [22]): 25 µg/mL; MIC E. coli BL21 (E. coli BL21; [22]): 25 µg/mL
PRT77 (RSGRCTPGVCKNGGTCVNLLVGGFKCDCPSGDFEKPYCQ; listed as Homo sapiens)	25 µg/mL	–	–	–	–	–	–	–	–	–	–	MIC (μg/mL) C. diversus (Citrobacter diversus; [12]): 50 µg/mL; MIC (μg/mL) A. hydrophila (Aeromonas hydrophila; [13]): 12.5 µg/mL; MIC (μg/mL) M. catarrhalis (Moraxella catarrhalis; [14]): 12.5 µg/mL; MIC (μg/mL) P. aeruginosa (Pseudomonas aeruginosa; [15]): 25 µg/mL; MIC (μg/mL) E. cloacae (Enterobacter cloacae; [16]): 25 µg/mL; MIC (μg/mL) P. mirabilis (Proteus mirabilis; [17]): 50 µg/mL; MIC (μg/mL) P. vulgaris (Proteus vulgaris; [18]): 50 µg/mL; MIC (μg/mL) S. marcescens (Serratia marcescens; [19]): 50 µg/mL; MIC (μg/mL) K. pneumonia (Klebsiella pneumonia; [20]): 50 µg/mL; MIC (μg/mL) E. coli BL21 (E. coli BL21; [21]): 12.5 µg/mL
PRT1323 (DCIECPGGAGSPCNGRGSCAEGMEGNGTCSCQEGFGGTACE; listed as Homo sapiens)	12.5 µg/mL	–	–	–	–	–	–	–	–	–	–	MIC against C. diversus (Citrobacter diversus; [12]): 50 µg/mL; MIC against A. hydrophila (Aeromonas hydrophila; [13]): 12.5 µg/mL; MIC against M. catarrhalis (Moraxella catarrhalis; [14]): 12.5 µg/mL; MIC against P. aeruginosa (Pseudomonas aeruginosa; [15]): 12.5 µg/mL; MIC against E. cloacae (Enterobacter cloacae; [16]): 12.5 µg/mL; MIC against P. mirabilis (Proteus mirabilis; [17]): 25 µg/mL; MIC against P. vulgaris (Proteus vulgaris; [18]): 50 µg/mL; MIC against S. marcescens (Serratia marcescens; [19]): 12.5 µg/mL; MIC against K. pneumonia (Klebsiella pneumonia; [20]): 25 µg/mL; MIC against E. coli BL21 (E. coli BL21; [21]): 25 µg/mL
PRT159 (EYDACQRKPCQNNASCIDANEKQDGSNFTCVCLPGYTGELCQ; listed as Homo sapiens)	25 µg/mL	12.5 µg/mL	12.5 µg/mL	12.5 µg/mL	25 µg/mL	12.5 µg/mL	25 µg/mL	12.5 µg/mL	25 µg/mL	12.5 µg/mL	50 µg/mL	–
PRT844 (CRCNRHSECAGVGARDHCLLCRNHTKGSHCEQCLPLFVGSAVGGGTCRP; listed as Homo sapiens)	12.5 µg/mL	50 µg/mL	12.5 µg/mL	25 µg/mL	50 µg/mL	50 µg/mL	12.5 µg/mL	12.5 µg/mL	25 µg/mL	12.5 µg/mL	25 µg/mL	–
PRT898 (NNNECESNPCVNGGTCKDMTSGYVCTCREGFSGPNCQ; listed as Homo sapiens)	25 µg/mL	–	–	–	–	–	–	–	–	–	–	MIC (Citrobacter diversus; C. diversus, 10 h cultivation at 37° C.): 12.5 µg/mL; MIC (Aeromonas hydrophila; A. hydrophila, 10 h cultivation at 37° C.): 12.5 µg/mL; MIC (Moraxella catarrhalis; M. catarrhalis, 10 h cultivation at 37° C.): 12.5 µg/mL; MIC (Pseudomonas aeruginosa; P. aeruginosa, 10 h cultivation at 37° C.): 25 µg/mL; MIC (Enterobacter cloacae; E. cloacae, 10 h cultivation at 37° C.): 50 µg/mL; MIC (Proteus mirabilis; P. mirabilis, 10 h cultivation at 37° C.): 12.5 µg/mL; MIC (Proteus vulgaris; P. vulgaris, 10 h cultivation at 37° C.): 25 µg/mL; MIC (Serratia marcescens; S. marcescens, 10 h cultivation at 37° C.): 12.5 µg/mL; MIC (Klebsiella pneumonia; K. pneumonia, 10 h cultivation at 37° C.): 12.5 µg/mL; MIC (E. coli BL21; E. coli BL21, 10 h cultivation at 37° C.): 50 µg/mL
